Results as given in US20210059977A1, “COMBINATION THERAPIES FOR THE TREATMENT OF AMYOTROPHIC LATERAL SCLEROSIS AND RELATED DISORDERS” (The General Hospital Corporation, priority 2018, published 2021).

System: SOD1^G93A mouse model
Assay: Neurological scoring (ALS TDI criteria)
Format: in vivo, mice
Conditions: 6.3 mg/kg i.p.
Description: Beginning at P50, weight and neurological score (using the ALS TDI criteria) (Hatzipetros, T., et al. (2015). “A Quick Phenotypic Neurological Scoring System for Evaluating Disease Progression in the SOD1-G93A Mouse Model of ALS.” J Vis Exp(104); Leitner M., et. al. (2009). “Working with ALS mice: Guidelines for preclinical testing & colony management.” The Jackson Laboratory) were recorded for each mouse every 5 days until death or euthanasia. ALS TDI criteria are as follows: • Score of 0: Full extension of hind legs away from lateral midline when mouse is suspended by its tail, and mouse can hold this for two seconds, suspended two to three times. • Score of 1: Collapse or partial collapse of leg extension towards lateral midline (weakness) or trembling of hind legs during tail suspension. • Score of 2: Toes curl under at least twice during walking of 12 inches, or any part of foot is dragging along cage bottom/table. • Score of 3: Rigid paralysis or minimal joint movement, foot not being used for generating forward motion. • Score of 4: Mouse cannot right itself within 15 seconds after being placed on either side. *Mice were euthanized upon obtaining a score of 4.
149 male and female age- and litter-matched transgenic (Tg) SOD1^G93A and wild-type (Wt) SOD1^G93A mice were used with the following breakdown: Females (19 WtSOD1-Vehicle, 17 WtSOD1-Cromolyn, 19 TgSOD1-Vehicle, and 17 TgSOD1-Cromolyn) and Males (18 WtSOD1-Vehicle, 21 WtSOD1-Cromolyn, 21 TgSOD1-Vehicle, 17 TgSOD1-Cromolyn).

## O=C(O)c1cc(=O)c2c(OCC(O)COc3cccc4oc(C(=O)O)cc(=O)c34)cccc2o1 [cromolyn, cromolyn sodium]
TgSOD1-Cromolyn vs TgSOD1-Vehicle, all mice, P90, P100, P110, P130, P140
  neurological score: significantly delayed disease onset and progression
Female mice, P90, P100, P120, P130, P140
  neurological score: significant increase in neurological score in the female TgSOD1-Vehicle treated group compared to TgSOD1-Cromolyn group
Male mice, P90, P100, P110
  neurological score: significant increase in neurological score in male TgSOD1-Vehicle treated group compared to TgSOD1-Cromolyn group
